Read-outs that look alike come from different tables or passages of the source.

Test [1] deals with mice. Particulars: cited from earlier work.
For test [2] the following is noted: in vivo; cited from earlier work.
For test [3], the system named is patients with AD. Particulars: cited from earlier work.
For test [4], the system named is K^+ transport. Put plainly: K^+ transport: ^86 Rb uptake by P3 membrane fractions of whole mouse brain. Particulars: for IC50: ^86 Rb uptake, P3 fraction, 0° C., pH 7, 5 seconds; for K^+ transport inhibition activity relative to amodiaquin (in words): fraction of amodiaquin's activity; for K^+ Transport Relative Potency: relative to amodiaquin = 1; for Concentration inhibiting K^+ transport (selection criterion met): submillimolar concentrations. The class given is biochemical, Swiss mice. Here is the method: To obtain the data set forth in Table I, K^+ -transport was measured using P3 membrane fractions prepared from whole brains of Swiss mice. […] The resulting supernatant was centrifuged at 17,000 g for 15 minutes, and the supernatant from the latter was centrifuged at 70,000 g for 1 hour to pellet the P3 fraction. The P3 pellet was washed by resuspension in 50 mM Tris-citrate (pH 7.3). After 10 minutes on ice, the suspension was centrifuged at 70,000 g for 10 minutes. This washing procedure was repeated twice using distilled water for the resuspension. […] The suspension (2-3 mg protein/ml) was stabilized on ice for 1 hour prior to use. Uptake of ^86 Rb (radioactive) was used to assess the K^+ -transport of the P3 articles. Many published experiments have shown the ^86 Rb, with a half-life 36 times longer than ^42 K, is a suitable tracer for K. Rb permeates neuronal K channels as well as does K itself.
After filtration of the samples, the filters were washed rapidly three times with 10^-3 M triethanolamine containing 0.1M RbCl (non-radioactive) and counted in ACS liquid scintillation cocktail (Amersham). In calculating the results, the uptake found in the presence of 0.1M non-radioactive RbCl was subtracted from that found in the presence of various concentrations of the test substances in the presence of 10^-6 M ^86 RbCl alone. […] Between 0.2 and 0.5 mg/ml usually were employed. The results were normalized by calculating them as percentages of the uptake observed with 10^-6 M ^86 RbCl alone.

The subject of test [5] is cholinesterase. Particulars: cited from earlier work.
The target in test [6] is T1, Acetylcholinesterase (Electrophorus electricus, UniProt O42275).
T1 construct: The enzyme employed was prepared from the electric organ of the electric eel; from tissue; host or cells: electric organ of the electric eel
T1 sequence (O42275 24-633): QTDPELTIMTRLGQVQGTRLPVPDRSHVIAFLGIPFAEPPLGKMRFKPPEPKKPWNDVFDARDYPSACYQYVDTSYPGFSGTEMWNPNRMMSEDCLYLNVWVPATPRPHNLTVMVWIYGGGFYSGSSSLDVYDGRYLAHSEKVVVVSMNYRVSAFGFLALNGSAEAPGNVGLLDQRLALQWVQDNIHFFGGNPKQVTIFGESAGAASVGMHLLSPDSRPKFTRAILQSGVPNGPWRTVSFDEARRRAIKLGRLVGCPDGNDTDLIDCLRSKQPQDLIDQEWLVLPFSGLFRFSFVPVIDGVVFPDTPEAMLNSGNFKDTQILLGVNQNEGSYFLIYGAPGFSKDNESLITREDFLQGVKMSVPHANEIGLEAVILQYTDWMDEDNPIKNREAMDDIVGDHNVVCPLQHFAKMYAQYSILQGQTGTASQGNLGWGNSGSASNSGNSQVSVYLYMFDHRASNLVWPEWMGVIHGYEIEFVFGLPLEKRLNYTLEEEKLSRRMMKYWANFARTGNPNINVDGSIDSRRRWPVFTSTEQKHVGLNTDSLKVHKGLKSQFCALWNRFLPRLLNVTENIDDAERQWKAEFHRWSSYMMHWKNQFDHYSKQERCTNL
The test is described as follows: Acetylcholinesterase activity, acetylthiocholine substrate, colorimetric (Ellman). Particulars: for Cholinesterase inhibitory potency relative to amodiaquin (in words): fraction of amodiaquin's inhibitory potency; for Acetylcholinesterase Activity Rank Order: rank among the five substances; for Acetylcholinesterase Activity Relative Potency: relative to amodiaquin = 1. The class given is biochemical, electric eel. Here is the method: Cholinesterase activity reported in Table I was measured by a standard procedure. The enzyme employed was prepared from the electric organ of the electric eel. It is known to have the same properties as the enzyme of mammalian nervous tissue. Acetylthiocholine was used as substrate.
Inhibitory potency of substances was determined by measuring enzyme activity in the absence and presence of varying concentrations of the test substances.
For orientation: In Ellman's method for cholinesterases, released thiocholine reacts with DTNB.

Turning to `Nc1ccncc1` [4AP, 4-aminopyridine], the “Effect on behavioral deficit produced by anoxia” value in test [1] is “partially reversed the behavioral deficit”. For the same molecule, the “Effect on general anesthesia” value in test [2] was “rapidly overcomes the effects of general anesthesia”. The “Effect on symptoms of AD” value in test [3] was “may improve symptoms in some patients with AD”.
`Nc1c2ccccc2nc2ccccc12` [9-aminoacridine] yielded an IC50 in test [4] of 70 µM.
Regarding `CCN(CC)Cc1cc(Nc2ccnc3cc(Cl)ccc23)ccc1O` [Amodiaquin, amodiaquin], in test [5], the Cholinesterase inhibition result is given as “effective cholinesterase inhibitor”. For the same molecule, the IC50 in test [4] came out at 40 µM; in test [6], 0.004 µM.
For the molecule `CCN(CC)CCCC(C)Nc1ccnc2cc(Cl)ccc12` (centres unmarked) [Chloroquine, chloroquine], in test [4], the IC50 was 600 µM, the “K^+ transport inhibition activity relative to amodiaquin (in words)” value is reported as “approximately one-twentieth”, the “K^+ Transport Relative Potency” value came to 0.067 and the “Concentration inhibiting K^+ transport (selection criterion met)” value is ≤ 10^-3 M. The half-inhibitory concentration (IC50) in test [6] (electric eel enzyme, acetylthiocholine substrate, read-out: Acetylcholinesterase Activity IC50) was found to be 4 µM. In addition, in test [6], the “Cholinesterase inhibitory potency relative to amodiaquin (in words)” value is “less than one-thousandth”, the “Acetylcholinesterase Activity Rank Order” value is 5(4) and the “Acetylcholinesterase Activity Relative Potency” value is 0.001.
For `CCN(CC)CCCC(C)Nc1c2ccc(Cl)cc2nc2ccc(OC)cc12` (centres unmarked) [Quinacrine, quinacrine], in test [4], the IC50 stood at 90 µM, the “K^+ transport inhibition activity relative to amodiaquin (in words)” value is on record as “approximately one-half”, the “K^+ Transport Relative Potency” value is recorded as 0.44 and the “Concentration inhibiting K^+ transport (selection criterion met)” value is recorded as ≤ 10^-3 M. In test [6], half-maximal inhibition (IC50) was put at 4 µM, the “Cholinesterase inhibitory potency relative to amodiaquin (in words)” value is listed as “less than one-thousandth”, the “Acetylcholinesterase Activity Rank Order” value is given as 4(5) and the “Acetylcholinesterase Activity Relative Potency” value is 0.001.

As usually defined, the IC50 is the concentration that inhibits the measured activity by half.
